Test results from publication PMC7765930, “Antiproliferative Phenanthrenes from Juncus tenuis: Isolation and Diversity-Oriented Semisynthetic Modification” (Molecules, 2020).
Read-outs that look alike come from different tables or passages of the source.

Assays:
[1] = tested on: KCR, drug-resistant subline of the human breast cancer MCF-7; assay: MTT antiproliferative assay, KCR; assay type: cell-based; settings: 100–0.19 μM, read-out: IC50 (µM) ± SD KCR
Experimental: (§1) Breast cancer cell line MCF-7 (ATCC® HTB-22) and the drug-resistant subline of the human breast cancer MCF-7 (ECACC 86012803; KCR) were purchased from LGC Promochem (Teddington, UK). Both cell lines were cultured in Eagle’s Minimal Essential Medium (EMEM, containing 4.5 g/L glucose) supplemented with a non-essential amino acid mixture, a selection of vitamins, and 10% heat-inactivated fetal bovine serum. In every third passage, 0.56 µg/mL doxorubicin was added to the medium, in order to maintain the ABCB1 (P-glycoprotein) expression in KCR cells. A2780 human ovarian cancer cell line (ECACC, European Collection of Authentical Cell Culture, Sigma Cat.no. 93112519) was purchased from Merck KGaA (Darmstadt, Germany). The cisplatin-resistant human ovarian cancer cell line A2780cis (ECACC European Collection of Authentical Cell Culture, Sigma Cat.no. 93112517) was purchased from Merck KGaA (Darmstadt, Germany). The human ovarian cancer cell lines were cultured in RPMI 1640 medium supplemented with 10% heat-inactivated fetal bovine serum. […] HeLa (ATCC® CCL-2™) human cervix carcinoma cell line was purchased from LGC Promochem (Teddington, UK). The cells were cultured in Eagle’s Minimal Essential Medium (EMEM, containing 4.5 g/L glucose) supplemented with a non-essential amino acid mixture, a selection of vitamins, and 10% heat-inactivated fetal bovine serum. MRC-5 human embryonal lung fibroblast cell line (ATCC® CCL-171) was purchased from LGC Promochem, Teddington, UK. The cell line was cultured in Eagle’s Minimal Essential Medium (EMEM, containing 4.5 g/L glucose) supplemented with a non-essential amino acid mixture, a selection of vitamins, and 10% heat-inactivated fetal bovine serum. HTB-26 breast adenocarcinoma cell line was purchased from LGC Promochem, Teddington, UK. The cell line was cultured in RPMI 1640 medium supplemented with 10% heat-inactivated fetal bovine serum. T-47D (ATCC® HTB-133™) ductal carcinoma cell line was purchased from LGC Promochem, Teddington, UK. The cells were cultured in RPMI 1640 medium supplemented with 10% heat-inactivated fetal bovine serum, 2 mM L-glutamine, 1 mM Na-pyruvate, and 100 mM Hepes. All of the cells were incubated at 37 °C, in a 5% CO2 and 95% air atmosphere.
(§2) The antiproliferative effect of the compounds was determined on human breast (MCF-7, KCR, T47D, and HTB-26), cervical (HeLa), and ovarian (A2780 and A2780cis) cancer cells, and on MRC-5 (human embryonic lung fibroblast) cell lines. The adherent cells were cultured in 96-well flat-bottomed microtiter plates, using EMEM supplemented with 10% heat-inactivated fetal bovine serum or RPMI 1640 supplemented with 10% heat-inactivated fetal bovine serum, respectively. The density of the cells was adjusted to 6 × 10^3 cells in 100 μL per well, the cells were seeded for 24 h at 37 °C, with 5% CO2, and then the medium was removed from the plates, and fresh medium (100 μL per well) was added to the cells. The effects of increasing concentrations of compounds on cell proliferation were tested in 96-well flat-bottomed microtiter plates. The compounds were diluted in the appropriate medium; the dilutions of compounds were performed in separate plates and then added to the cells. The starting concentration of the compounds was 100 μM, and two-fold serial dilution was performed (concentration range: 100–0.19 μM). The culture plates were incubated at 37 °C for 72 h; at the end of the incubation period, 20 μL of MTT (thiazolyl blue tetrazolium bromide, Sigma) solution (from a stock solution of 5 mg/mL) was added to each well. After incubation at 37 °C for 4 h, 100 μL of sodium dodecyl sulfate (SDS) (Sigma) solution (10% in 0.01 M HCI) was added to each well, and the plates were further incubated, at 37 °C, overnight. Cell growth was determined by measuring the optical density (OD) at 540/630 nm, with a Multiscan EX ELISA reader (Thermo Labsystems, Cheshire, WA, USA). […]

[2] = tested on: HeLa human cervix carcinoma cell line; assay: MTT antiproliferative assay, HeLa; assay type: cell-based; settings: 72 h, 100–0.19 μM, read-out: IC50 (µM) ± SD HeLa
Experimental: as §1, §2

[3] = tested on: A2780 human ovarian cancer cell line; assay: MTT antiproliferative assay, A2780; assay type: cell-based; settings: 100–0.19 μM, read-out: IC50 (µM) ± SD A2780
Experimental: as §1, §2

[4] = tested on: Breast cancer cell line MCF-7; assay: MTT antiproliferative assay, MCF-7; assay type: cell-based, human; settings: for IC50: MTT assay, 72 h, 100–0.19 μM, read-out: IC50 (µM) ± SD MCF-7
Experimental: as §1, §2

[5] = tested on: HeLa cells; parameters: method as in PMID 30127296, PMID 31005716; settings: previously described, read-out: IC50, antiproliferative activity on HeLa cells; cited from earlier work
[6] = tested on: caspase-3; parameters: method as in PMID 31005716; settings: cited from earlier work
[7] = tested on: G2/M and subG1 cell cycle phase; parameters: method as in PMID 31005716; settings: even at lower concentrations; cited from earlier work
[8] = tested on: normal skin fibroblasts CCD966SK; parameters: method as in PMID 31005716; settings: even at higher concentrations; cited from earlier work
[9] = tested on: tubulin; parameters: method as in PMID 31005716; settings: at 200 µM; cited from earlier work

SMILES | IC50 ([1]; 72 h) [µM] | IC50 [2] [µM] | IC50 ([3]; 72 h) [µM] | IC50 [4] [µM] | IC50 ([1]; Homo sapiens, MCF7, 72 h) [µM] | IC50 ([2]; Homo sapiens, HeLa) [µM] | IC50 ([3]; Homo sapiens, A2780, 72 h) [µM] | IC50 ([4]; Homo sapiens, MCF7, 72 h) [µM] | also measured
N.N.[Cl][Pt][Cl] [Cisplatin, cisplatin, reference compound] | 6.7 ± 0.4 | 2.3 ± 0.1 | 3.6 ± 0.3 | 1.4 ± 1.1 | – | – | – | – | –
C=CC1=C(C)C(=O)C=C2CCC3=C(C=CC(=O)C3(C)OC)C21OC (stereo not shown) [Compound 1b] | – | – | – | – | > 100 | > 100 | 80.3 ± 3 | 52.1 ± 4.8 | –
C=Cc1c(C)c(O)cc2c1-c1ccc(O)c(C)c1CC2 [juncusol] | – | – | – | – | 35.8 ± 1.7 | 0.5 | 23.8 ± 1.3 | 37.1 ± 1.1 | IC50 [5]: 0.95 µM; caspase-3 activity [6]: significant and concentration-dependent increase; number of cells in the G2/M and subG1 cell cycle phase [7]: increased; toxicity on normal skin fibroblasts CCD966SK [8]: nontoxic; tubulin polymerization [9]: decreased
C=Cc1cc(O)cc2c1-c1ccc(O)c(C)c1CC2 [effusol] | – | – | – | – | 39.3 ± 1.6 | 2.3 ± 0.7 | 33.1 ± 3.1 | 48.6 ± 3.4 | IC50 [5]: 3.68 µM
C=CC1=CC(=O)C=C2CCC3=C(C=CC(=O)C3(C)OC)C12OC (stereo not shown) [Compound 3] | – | – | – | – | 18.9 ± 1.4 | 12.9 ± 0.4 | 8.6 ± 0.5 | 5.8 ± 0.2 | selectivity against MCF-7 cells over non-tumoral MRC-5 cells ([4]; ratio of IC50 MRC-5 / MCF-7): ca. 2.1 fold

Continued, in another order:

IC50 ([1]; 72 h) [µM] | IC50 [2] [µM] | IC50 ([3]; 72 h) [µM] | IC50 [4] [µM] | IC50 ([1]; Homo sapiens, MCF7, 72 h) [µM] | IC50 ([2]; Homo sapiens, HeLa) [µM] | IC50 ([3]; Homo sapiens, A2780, 72 h) [µM] | IC50 ([4]; Homo sapiens, MCF7, 72 h) [µM] | SMILES | also measured
44.2 ± 2.6 | 61.9 ± 0.3 | 39.4 ± 3.1 | 41 ± 0.9 | – | – | – | – | C=CC1=C(C)C(=O)C=C2CCC3=C(C=CC(=O)C3(C)OCC)C21OCC (stereo not shown) [Compound 2b] | –
> 100 | – | – | – | – | 94.7 ± 3.4 | 66 ± 4.4 | 80.5 ± 3.5 | C=CC1=C(C)C(=O)C=C2CCC3=C(C=CC(=O)C3(C)OCC)C21OCC (stereo not shown) [Compound 2a] | –
– | – | – | – | 23.5 ± 0.8 | 24.4 ± 0.8 | 25.2 ± 1.8 | 11.7 ± 0.7 | C=CC1=CC(=O)C=C2CCC3=C(C=CC(=O)C3(C)OCC)C12OCC (stereo not shown) [Compound 4a] | –
29.4 ± 0.9 | 35 ± 1.5 | 22 ± 2 | 10.2 ± 0.1 | – | – | – | – | C=CC1=CC(=O)C=C2CCC3=C(C=CC(=O)C3(C)OCC)C12OCC (stereo not shown) [Compound 4b] | –
